Several values for one entry are separate records, joined by “and”; a condition that tells them apart may be missing. Equal values may be shown once. Entries after “also recorded” stand apart in the source; their conditions may differ. Read-outs that look alike come from different tables or passages of the source.
How the values were obtained:
[1] = system: Agaricus bisporus tyrosinase; settings: HQ as substrate; cited from earlier work
[2] = molecular target: T1, TyrBm (tyrosinase from Bacillus megaterium) (Priestia megaterium, UniProt B2ZB02); assay: biochemical
T1 sequence (B2ZB02 1-297): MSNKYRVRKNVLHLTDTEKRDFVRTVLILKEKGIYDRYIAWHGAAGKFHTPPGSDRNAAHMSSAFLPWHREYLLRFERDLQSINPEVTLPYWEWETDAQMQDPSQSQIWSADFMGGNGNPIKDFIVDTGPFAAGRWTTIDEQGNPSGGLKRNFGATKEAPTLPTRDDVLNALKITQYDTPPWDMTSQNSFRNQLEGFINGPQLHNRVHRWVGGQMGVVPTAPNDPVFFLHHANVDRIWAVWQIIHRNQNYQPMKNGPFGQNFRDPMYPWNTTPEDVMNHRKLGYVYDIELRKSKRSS
Procedure: Tyrosinase inhibitory activity was determined spectrophotometrically in 96-well plates with a final volume of 200 μl. First, 50 mM PBS buffer pH 7.4 and 0.01 mM CuSO4 were mixed with 6 μg ml^−1 of purified enzyme. Then, the mixture was incubated at 40 °C for 2 minutes. […] Specific activity was calculated as the ratio of the conversion rate and the total protein content as determined by the Bradford analysis method (Bio-Rad, Israel). All measurements were performed in seven replicates.

[3] = molecular target: T1, TyrBm (tyrosinase from Bacillus megaterium)
Procedure: The formation of HBP was monitored by measuring the absorbance at 475 nm[26].
Batel Deria,§, Margarita Kanteeva,§, Mor Goldfedera, Daniel Lecinab, Victor Guallarb,c,
Noam Adird, and Ayelet Fishmana,†
presence of reducing agents measured at 475 nm.
increasing concentrations of L-dopa (0-3 mM).
as the substrate in the presence of increasing concentrations of H2O2 (0-90 mM).
reactions contained 6 µg ml-1 of purified TyrBm, 50 mM PBS buffer pH 7.4 and 0.01 mM
(§1) (1 picture or pasted object on this page, not shown here)

[4] = molecular target: T1, TyrBm (tyrosinase from Bacillus megaterium); assay: Kinetic analysis of tyrosinase (Lineweaver-Burk plots); format: biochemical; design: made in house; host or cells: Escherichia coli BL21
Procedure: All measurements were performed in seven replicates.
The inhibitor concentrations were mentioned above. The inhibition kinetics module of Sigma Plot 13.0 software was used (Systat Software, Inc., Richmond, CA, USA). All measurements were performed in 5-replicates.

[5] = molecular target: T1, TyrBm (tyrosinase from Bacillus megaterium); settings: 1 mM L-dopa
Procedure: Measurements were carried out using a Hansatech Oxygraph+ electrode (Norfolk, UK) in a reaction volume of 1000 μL.
(a) Spectrophotometric recordings measured at 475 nm. All measurements were performed in heptaplicates. (b) Oxygen consumption recordings. The inset presents the oxygen […]
measurements were performed in triplicates. The reactions contained 4 µg ml-1 of purified […]
The slopes representing the activity rate are given for each graph.
as §1

mushroom tyrosinase = settings: cited from earlier work
[6] = molecular target: T1, TyrBm (tyrosinase from Bacillus megaterium); assay: biochemical; format: binding; design: made in house; host or cells: Escherichia coli BL21
Procedure: TyrBm was labeled fluorescently with a RED dye (NT-647-NHS) according to the manufacturer’s protocol (NanoTemper Technologies, Munich, Germany). Non-bound dye was removed by purification of the enzyme on a Sephadex G-25 column with buffers provided in the commercial kit. […] Approximately 10 μl of sample was loaded into hydrophilic monolith NT capillaries and the measurement was performed in a NanoTemper Monolith NT.015T instrument. The emission of the red fluorescence was recorded at a focused location of the capillary. In the same location, a microscopic temperature gradient was created using an infrared laser and the fluorescence depletion was measured. According to changes in the fluorescent thermophoresis signal and the concentrations of unlabeled inhibitor, the dissociation constant values were determined by the NanoTemper analysis software.
(b) Titration of rising concentrations of
(c) Titration of rising concentrations of L-tyrosine (0-
The reactions contained constant concentration of TyrBm
as §1

In the case of Oc1ccc(O)cc1 [HQ, hydroquinone], the Km [1] is given as 250 µM, the IC50 [2] is given as 32 ± 2 µM and the Vmax ([3]; HQ as substrate in the presence of H2O2 (100 mM)) is given as 19 µmol/min/mg. The “activity of TyrBm with L-dopa and HQ higher than with L-dopa alone” value ([3]; absorbance readings at 475 nm, 1 mM L-dopa, 0.1 mM HQ) was 17%, the “TyrBm activity with HQ as a sole substrate” value ([3]; several hours, without H2O2 or L-dopa, visual, vs control without enzyme) was “low activity was visually observed” and the Inhibition mode ([4]; diphenolase activity, substrate L-dopa) was “no inhibition; also recorded: does not inhibit”. The Inhibition mode ([4]; monophenolase activity, substrate L-tyrosine) was “competitive”, the Ki ([4]; substrate L-tyrosine) was 40 ± 10 µM and the “Vmax (apparent, in presence of inhibitor)” value ([4]; substrate L-tyrosine) was 9.0 µmol/min/mg and 9.0 ± 0.5 µmol/min/mg. The “kcat (in presence of inhibitor)” value ([4]; substrate L-tyrosine) was 5.3 s⁻¹, the “activity of TyrBm with L-dopa and HQ higher than with L-dopa alone” value ([5]; oxygen consumption measurements, 0.1 mM HQ) was 8% and the “effect on TyrBm activity on L-dopa” value ([5]; spectrophotometric and oxygen consumption recordings, 0.1 mM compound) was “enhances activity”. The “IC50 with L-dopa higher in comparison to L-tyrosine” value (mushroom tyrosinase) was 80 fold, the Ki (mushroom tyrosinase; competitive, ref 25 Chawla et al.) was 83 µM and the IC50 (mushroom tyrosinase; monophenols) was 33.5 µM. The Kd [6] was 9 ± 1 µM and the “dissociation constant higher than L-tyrosine” value [6] was 90 fold.
In the case of O=c1cccccc1O [Tropolone], the Inhibition mode (mushroom tyrosinase) is listed as “mixed”.
For N[C@@H](Cc1ccc(O)cc1)C(=O)O [L-tyrosine], the Kd ([6]; read-out: KD) was 0.1 ± 0.03 µM.

— publication PMC5057104, “The unravelling of the complex pattern of tyrosinase inhibition” (Scientific Reports, 2016)
